ChEMBL document CHEMBL3751677, “Cardanol-derived AChE inhibitors: Towards the development of dual binding derivatives for Alzheimer's disease” (Eur J Med Chem, 2016)
The source made the active and inactive calls. The calls are words filed in the database; no cut-off is given here.

What was measured:
Acetylcholinesterase [1] = biological target: T1, Acetylcholinesterase (Electrophorus electricus, UniProt O42275); test: Inhibition of electric eel acetylcholine esterase preincubated for 10 mins followed by the addition of […] as substrate measured after 5 mins by Ellman's method
T1 sequence (O42275 whole entry): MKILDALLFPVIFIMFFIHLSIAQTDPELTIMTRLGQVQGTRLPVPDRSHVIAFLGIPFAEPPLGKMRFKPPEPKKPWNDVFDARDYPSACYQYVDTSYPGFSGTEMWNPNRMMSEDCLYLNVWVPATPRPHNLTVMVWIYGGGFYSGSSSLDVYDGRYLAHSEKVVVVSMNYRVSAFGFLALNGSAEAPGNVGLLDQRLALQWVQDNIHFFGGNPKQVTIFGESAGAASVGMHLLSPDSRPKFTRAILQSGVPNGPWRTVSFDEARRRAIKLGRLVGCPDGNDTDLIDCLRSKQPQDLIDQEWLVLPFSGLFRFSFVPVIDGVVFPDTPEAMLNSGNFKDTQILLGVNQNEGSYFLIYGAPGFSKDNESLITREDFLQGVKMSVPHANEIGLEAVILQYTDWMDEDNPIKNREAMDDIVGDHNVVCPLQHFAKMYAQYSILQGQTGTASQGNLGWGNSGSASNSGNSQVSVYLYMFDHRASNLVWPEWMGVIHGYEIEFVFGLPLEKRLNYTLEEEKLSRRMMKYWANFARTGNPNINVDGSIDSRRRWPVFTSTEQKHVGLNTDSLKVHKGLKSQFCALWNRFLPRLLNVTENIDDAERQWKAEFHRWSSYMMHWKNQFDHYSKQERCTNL

Cholinesterase = Cholinesterase (Equus caballus, UniProt P81908); test: Inhibition of horse butyrylcholine esterase preincubated for 10 mins followed by the addition of […] as substrate measured after 5 mins by Ellman's method
Sequence of Cholinesterase (P81908 whole entry): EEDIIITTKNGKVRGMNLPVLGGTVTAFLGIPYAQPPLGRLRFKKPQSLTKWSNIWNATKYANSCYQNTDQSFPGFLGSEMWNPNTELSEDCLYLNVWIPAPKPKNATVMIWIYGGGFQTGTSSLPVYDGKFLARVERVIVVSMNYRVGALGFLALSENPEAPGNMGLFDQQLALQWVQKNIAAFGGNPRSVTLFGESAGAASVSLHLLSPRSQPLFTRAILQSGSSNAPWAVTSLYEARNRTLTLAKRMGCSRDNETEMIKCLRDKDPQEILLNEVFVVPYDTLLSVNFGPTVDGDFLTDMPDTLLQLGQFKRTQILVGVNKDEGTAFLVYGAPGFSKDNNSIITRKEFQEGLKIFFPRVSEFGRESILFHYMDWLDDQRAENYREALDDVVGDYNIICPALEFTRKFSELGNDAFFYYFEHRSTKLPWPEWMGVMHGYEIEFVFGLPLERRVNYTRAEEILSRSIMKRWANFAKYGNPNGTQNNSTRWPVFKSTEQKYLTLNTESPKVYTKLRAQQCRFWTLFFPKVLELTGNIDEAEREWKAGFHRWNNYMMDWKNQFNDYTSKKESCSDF

[2] = Selectivity index, ratio of IC50 for horse butyrylcholine esterase to IC50 for electric eel acetylcholine esterase
HT-29 [3] = test: Cytotoxicity against human HT-29 cells at 10 uM by LDH release assay; type: cell-based; settings: ht-29, 10 µM
Acetylcholinesterase [4] = biological target: T1, Acetylcholinesterase; test: Non-competitive inhibition of electric eel acetylcholine esterase using […] as substrate by Ellman's method
HT-29 [5] = test: Cytotoxicity against human HT-29 cells assessed as LDH release at 100 uM after 24 hrs; type: cell-based; settings: ht-29, 24 h
[6] = Cytotoxicity against human HT-29 cells assessed as decrease in cell viability after 24 hrs by calcein-AM/propidium iodide based fluorescence analysis; settings: read-out: INH
[7] = biological target: Amyloid-beta precursor protein (Homo sapiens) (UniProt P05067); test: Inhibition of Amyloid beta42 (unknown origin) self aggregation assessed as Abeta fibril formation at 50 uM for 24 hrs by ThT-based fluorometric assay
Sequence of Amyloid-beta precursor protein (Homo sapiens) (P05067 whole entry): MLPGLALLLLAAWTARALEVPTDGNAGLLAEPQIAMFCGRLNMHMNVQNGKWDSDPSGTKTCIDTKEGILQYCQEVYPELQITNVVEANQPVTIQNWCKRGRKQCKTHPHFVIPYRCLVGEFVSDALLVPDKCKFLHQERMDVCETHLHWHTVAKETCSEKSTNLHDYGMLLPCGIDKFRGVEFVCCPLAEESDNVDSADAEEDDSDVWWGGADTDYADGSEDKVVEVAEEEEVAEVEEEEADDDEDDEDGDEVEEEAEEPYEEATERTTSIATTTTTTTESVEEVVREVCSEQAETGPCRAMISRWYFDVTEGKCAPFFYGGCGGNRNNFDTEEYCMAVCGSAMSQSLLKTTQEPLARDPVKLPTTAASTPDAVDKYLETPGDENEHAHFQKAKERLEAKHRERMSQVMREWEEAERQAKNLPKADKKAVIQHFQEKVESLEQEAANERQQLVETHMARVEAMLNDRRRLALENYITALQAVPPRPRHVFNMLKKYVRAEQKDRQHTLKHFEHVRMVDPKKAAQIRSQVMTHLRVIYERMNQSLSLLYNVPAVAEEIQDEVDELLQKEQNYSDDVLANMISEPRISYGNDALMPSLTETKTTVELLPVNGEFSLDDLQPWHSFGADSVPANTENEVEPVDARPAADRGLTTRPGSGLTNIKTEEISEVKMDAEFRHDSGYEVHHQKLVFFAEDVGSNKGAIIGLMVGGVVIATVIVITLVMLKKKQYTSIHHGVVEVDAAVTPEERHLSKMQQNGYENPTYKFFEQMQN

HT-29 [8] = test: Cytotoxicity against human HT-29 cells at 10 times IC50 by LDH release assay; type: cell-based
Acetylcholinesterase [9] = biological target: Acetylcholinesterase (Homo sapiens, UniProt P22303)
Sequence of Acetylcholinesterase (Homo sapiens, UniProt P22303) (P22303 whole entry): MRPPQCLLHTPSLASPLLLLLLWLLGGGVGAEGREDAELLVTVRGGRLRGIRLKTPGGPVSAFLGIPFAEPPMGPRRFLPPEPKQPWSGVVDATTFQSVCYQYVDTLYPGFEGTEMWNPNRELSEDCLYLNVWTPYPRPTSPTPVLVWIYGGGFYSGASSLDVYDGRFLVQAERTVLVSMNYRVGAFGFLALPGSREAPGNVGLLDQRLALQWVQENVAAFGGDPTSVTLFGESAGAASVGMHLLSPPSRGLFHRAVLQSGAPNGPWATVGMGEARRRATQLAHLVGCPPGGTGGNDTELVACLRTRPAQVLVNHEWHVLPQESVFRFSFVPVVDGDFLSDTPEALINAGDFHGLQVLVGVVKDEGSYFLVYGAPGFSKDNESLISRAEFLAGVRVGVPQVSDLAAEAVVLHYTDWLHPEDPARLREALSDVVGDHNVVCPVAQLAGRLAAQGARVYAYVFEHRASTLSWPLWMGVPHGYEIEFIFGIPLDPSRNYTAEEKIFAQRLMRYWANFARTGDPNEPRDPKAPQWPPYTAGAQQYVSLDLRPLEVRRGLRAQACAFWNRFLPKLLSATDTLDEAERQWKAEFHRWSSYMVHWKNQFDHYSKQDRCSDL
Description: Inhibition of human acetylcholine esterase preincubated for 10 mins followed by the addition of 550 uM of acetylcholine iodide as substrate measured after 20 mins by Ellman's method

Acetylcholinesterase [10] = biological target: T1, Acetylcholinesterase; test: Mixed inhibition of electric eel acetylcholine esterase using […] as substrate by Ellman's method

| SMILES | IC50 (Acetylcholinesterase [1]) [µM] | IC50 (Cholinesterase) [µM] | Ratio IC50 [2] | Activity (HT-29 [3]) | Ki (Acetylcholinesterase [4]) [µM] | Activity (HT-29 [5]) | cytotoxicity at 24 h [6] [%] | inhibition [7] | Activity (HT-29 [8]) | IC50 (Acetylcholinesterase [9]) [µM] | Ki (Acetylcholinesterase [10]) [µM] |
| --- | --- | --- | --- | --- | --- | --- | --- | --- | --- | --- | --- |
| COc1cccc(CCCCCCCCN2CCC(OC(=O)N(C)C)C2)c1 (racemic) | 13.7 | 22.8 | 1.7 | Non-toxic | 8.6 | – | – | – | – | – | – |
| COc1cccc(CCCCCCCCNCc2ccccc2OC)c1 | 17.2 | 3.1 | 0.2 | Non-toxic | 17 | Toxic | 46.3 | – | – | – | – |
| CCN(CCCCCCCCc1cccc(OC)c1)Cc1ccccc1OC | 6.6 | 5 | 0.8 | Non-toxic | 24.4 | Toxic | – | inactive | Toxic | 5.65 | – |
| CCN(CCCCCCCCc1cccc(OC)c1)Cc1ccccc1 | 16.1 | 8 | 0.5 | Non-toxic | 10.4 | – | – | – | – | – | – |
| COc1cccc(CCCCCCCCN2CCCC(OC(C)=O)C2)c1 (racemic) | 16.1 | 19 | 1.2 | Non-toxic | 19 | – | – | – | – | – | – |
| COc1cccc(CCCCCCCCN2CCCC(OC(=O)N(C)C)C2)c1 (racemic) | 14.3 | 23.5 | 1.7 | Non-toxic | 22.4 | – | – | – | – | – | – |
| COc1cccc(CCCCCCCCN2CCCC2)c1 | 19.6 | 16.4 | 0.8 | Non-toxic | – | – | – | – | – | – | 22.4 |
